Earlier results in US20250345298A1, “APOE4 CORRECTORS AND METHODS OF USE” (Alzheon, Inc., priority 2022, published 2025).

SMILES	efficacy in Alzheimer's disease trials (human clinical trials for AD)	safety in human subjects
NCCCS(=O)(=O)O [Tramiprosate, 3-amino-1-propanesulfonic acid]	suggested efficacy in at least some patients	safe
CC(C)[C@H](N)C(=O)NCCCS(=O)(=O)O [ALZ-801, valyl-3-amino-1-propanesulfonic acid]		safe
